Test results taken from ChEMBL document CHEMBL3853315, “Targeting the Translesion Synthesis Pathway for the Development of Anti-Cancer Chemotherapeutics” (J Med Chem, 2016).

Experiments:
[1] = Growth inhibition of human MDA-MB-231 cells after 72 hrs by MTT assay; assay type: functional; conditions: MDA-MB-231, 72 h
[2] = target: Ubiquitin carboxyl-terminal hydrolase 1/WD repeat-containing protein 48 (Homo sapiens, UniProt O94782); test: Inhibition of human USP1/UAF1 complex using Ub-Rho as substrate preincubated for 30 mins followed by substrate addition by fluorescence-based HTS assay; assay type: protein-complex assay
Sequence of Ubiquitin carboxyl-terminal hydrolase 1/WD repeat-containing protein 48 (Homo sapiens, UniProt O94782) (O94782 whole entry): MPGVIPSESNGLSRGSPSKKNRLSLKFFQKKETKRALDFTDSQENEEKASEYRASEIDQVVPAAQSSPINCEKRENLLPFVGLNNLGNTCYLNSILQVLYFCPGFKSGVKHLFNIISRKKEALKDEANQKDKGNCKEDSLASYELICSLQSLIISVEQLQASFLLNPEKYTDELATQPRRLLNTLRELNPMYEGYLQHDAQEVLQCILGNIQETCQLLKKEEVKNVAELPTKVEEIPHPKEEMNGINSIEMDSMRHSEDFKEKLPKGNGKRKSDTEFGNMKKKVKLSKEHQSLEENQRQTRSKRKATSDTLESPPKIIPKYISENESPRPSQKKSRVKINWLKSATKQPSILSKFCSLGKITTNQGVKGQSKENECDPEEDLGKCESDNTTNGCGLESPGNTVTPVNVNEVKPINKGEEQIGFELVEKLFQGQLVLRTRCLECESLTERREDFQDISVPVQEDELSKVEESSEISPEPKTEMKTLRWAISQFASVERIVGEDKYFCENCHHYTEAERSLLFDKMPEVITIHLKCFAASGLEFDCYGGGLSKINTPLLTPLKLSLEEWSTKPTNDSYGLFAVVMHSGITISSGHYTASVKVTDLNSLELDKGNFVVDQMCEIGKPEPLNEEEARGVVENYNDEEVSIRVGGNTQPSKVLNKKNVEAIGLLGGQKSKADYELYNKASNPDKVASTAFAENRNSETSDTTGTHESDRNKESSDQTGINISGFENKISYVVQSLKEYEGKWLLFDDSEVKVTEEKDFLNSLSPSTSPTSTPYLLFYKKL
Sequence of Ubiquitin carboxyl-terminal hydrolase 1/WD repeat-containing protein 48 (Homo sapiens, UniProt O94782) (Q8TAF3 whole entry, further chain): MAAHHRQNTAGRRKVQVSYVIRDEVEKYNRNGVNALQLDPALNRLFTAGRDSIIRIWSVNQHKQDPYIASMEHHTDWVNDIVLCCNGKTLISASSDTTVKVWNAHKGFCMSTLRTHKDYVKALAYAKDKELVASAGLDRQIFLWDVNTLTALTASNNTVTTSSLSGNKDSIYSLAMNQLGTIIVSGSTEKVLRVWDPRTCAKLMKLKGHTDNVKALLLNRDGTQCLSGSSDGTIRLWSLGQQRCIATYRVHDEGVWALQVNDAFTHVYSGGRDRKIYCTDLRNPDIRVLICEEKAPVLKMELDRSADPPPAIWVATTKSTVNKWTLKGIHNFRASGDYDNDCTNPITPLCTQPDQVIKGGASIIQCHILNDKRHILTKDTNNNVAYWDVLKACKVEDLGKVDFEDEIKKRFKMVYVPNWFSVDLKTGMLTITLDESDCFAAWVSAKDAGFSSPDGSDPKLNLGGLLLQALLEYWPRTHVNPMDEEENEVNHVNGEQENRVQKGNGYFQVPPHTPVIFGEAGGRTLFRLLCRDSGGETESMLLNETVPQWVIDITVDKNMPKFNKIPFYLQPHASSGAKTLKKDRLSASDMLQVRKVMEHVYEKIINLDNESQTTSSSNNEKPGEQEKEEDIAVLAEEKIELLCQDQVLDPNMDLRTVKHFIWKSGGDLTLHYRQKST

[3] = target: T1, Ubiquitin carboxyl-terminal hydrolase 1/WD repeat-containing protein 48 (Homo sapiens, UniProt O94782+Q8TAF3); test: Inhibition of USP1/UAF1 complex in HEK293T cells assessed as decrease in ability of DNA polymerase eta to bypass UV-induced DNA lesions after 24 hrs by strand specific PCR-based competitive replication and adduct bypass assay; assay type: cell-based; conditions: HEK-293T, concentration not given here
T1 sequence (O94782 whole entry): as the sequence (O94782 whole entry) above
T1 sequence (Q8TAF3 whole entry): as the sequence (Q8TAF3 whole entry, further chain) above

[4] = target: T1, Ubiquitin carboxyl-terminal hydrolase 1/WD repeat-containing protein 48; test: Inhibition of USP1/UAF1 complex in human H596 cells assessed as potentiation of cisplatin-induced cell killing by measuring cisplatin GI50 at 1:4 cisplatin to compound ratio pretreated for 48 hrs followed by addition of fresh growth medium measured after 5 to 10 days by colony forming assay (reference value: 486 nM); assay type: cell-based
DNA polymerase iota = target: T2, DNA polymerase iota (Homo sapiens, UniProt Q9UNA4); test: Inhibition of human recombinant DNA polymerase iota expressed in Baculovirus expression system using TAMRA/BHQ-2-labeled primer/template measured at 2 to 6 mins by reporter-strand displacement assay
T2 sequence (Q9UNA4 whole entry): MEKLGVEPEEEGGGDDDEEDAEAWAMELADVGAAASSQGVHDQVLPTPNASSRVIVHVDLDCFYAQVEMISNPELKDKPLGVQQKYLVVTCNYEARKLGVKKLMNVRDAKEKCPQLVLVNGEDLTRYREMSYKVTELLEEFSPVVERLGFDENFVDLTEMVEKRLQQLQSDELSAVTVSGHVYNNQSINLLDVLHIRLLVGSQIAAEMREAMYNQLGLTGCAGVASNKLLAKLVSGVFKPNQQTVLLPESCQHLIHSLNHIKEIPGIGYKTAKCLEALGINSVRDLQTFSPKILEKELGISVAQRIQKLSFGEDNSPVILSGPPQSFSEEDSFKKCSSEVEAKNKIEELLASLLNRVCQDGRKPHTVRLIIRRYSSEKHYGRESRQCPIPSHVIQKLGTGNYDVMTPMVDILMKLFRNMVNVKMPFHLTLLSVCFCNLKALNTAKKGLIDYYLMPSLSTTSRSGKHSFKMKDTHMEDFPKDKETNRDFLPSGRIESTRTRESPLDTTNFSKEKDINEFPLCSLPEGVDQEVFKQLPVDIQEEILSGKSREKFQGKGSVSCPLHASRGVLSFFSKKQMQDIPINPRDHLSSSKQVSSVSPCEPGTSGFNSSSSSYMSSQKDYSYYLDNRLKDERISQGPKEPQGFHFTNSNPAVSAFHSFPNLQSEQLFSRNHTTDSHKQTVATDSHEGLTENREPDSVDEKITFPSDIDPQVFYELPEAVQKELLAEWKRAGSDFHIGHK

DNA polymerase eta = target: T3, DNA polymerase eta (Homo sapiens, UniProt Q9Y253); test: Inhibition of human recombinant DNA polymerase eta expressed in Baculovirus expression system using TAMRA/BHQ-2-labeled primer/template measured at 2 to 6 mins by reporter-strand displacement assay
T3 sequence (Q9Y253 whole entry): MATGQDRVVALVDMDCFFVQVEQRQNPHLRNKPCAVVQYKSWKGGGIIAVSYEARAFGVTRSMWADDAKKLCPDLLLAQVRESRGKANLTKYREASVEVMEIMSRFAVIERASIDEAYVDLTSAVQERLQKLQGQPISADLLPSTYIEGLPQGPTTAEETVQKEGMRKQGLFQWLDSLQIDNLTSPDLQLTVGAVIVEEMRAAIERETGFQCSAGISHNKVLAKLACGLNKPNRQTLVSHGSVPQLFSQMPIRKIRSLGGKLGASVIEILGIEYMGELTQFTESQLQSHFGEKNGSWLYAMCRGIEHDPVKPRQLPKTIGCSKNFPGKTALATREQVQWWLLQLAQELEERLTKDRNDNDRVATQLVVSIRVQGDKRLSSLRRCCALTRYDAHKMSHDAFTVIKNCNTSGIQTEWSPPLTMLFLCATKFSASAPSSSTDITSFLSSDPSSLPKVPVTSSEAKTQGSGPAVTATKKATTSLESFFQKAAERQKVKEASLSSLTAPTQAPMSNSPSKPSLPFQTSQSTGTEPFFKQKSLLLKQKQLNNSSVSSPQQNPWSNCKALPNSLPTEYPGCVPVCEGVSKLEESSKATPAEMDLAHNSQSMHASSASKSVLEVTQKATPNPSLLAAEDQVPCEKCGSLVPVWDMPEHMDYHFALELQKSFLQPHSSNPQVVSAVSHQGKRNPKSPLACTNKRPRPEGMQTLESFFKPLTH

DNA polymerase kappa = target: T4, DNA polymerase kappa (Homo sapiens, UniProt Q9UBT6); test: Inhibition of human DNA polymerase kappa (19 to 526 residues)-mediated TLS past acrolein derived ring-opened reduced form of gamma-HOPdG lesions preincubated for 15 mins followed by DNA substrate addition measured after 30 mins in presence of dCTP and dGTP by radioactive gel-based primer extension assay
T4 sequence (Q9UBT6 whole entry): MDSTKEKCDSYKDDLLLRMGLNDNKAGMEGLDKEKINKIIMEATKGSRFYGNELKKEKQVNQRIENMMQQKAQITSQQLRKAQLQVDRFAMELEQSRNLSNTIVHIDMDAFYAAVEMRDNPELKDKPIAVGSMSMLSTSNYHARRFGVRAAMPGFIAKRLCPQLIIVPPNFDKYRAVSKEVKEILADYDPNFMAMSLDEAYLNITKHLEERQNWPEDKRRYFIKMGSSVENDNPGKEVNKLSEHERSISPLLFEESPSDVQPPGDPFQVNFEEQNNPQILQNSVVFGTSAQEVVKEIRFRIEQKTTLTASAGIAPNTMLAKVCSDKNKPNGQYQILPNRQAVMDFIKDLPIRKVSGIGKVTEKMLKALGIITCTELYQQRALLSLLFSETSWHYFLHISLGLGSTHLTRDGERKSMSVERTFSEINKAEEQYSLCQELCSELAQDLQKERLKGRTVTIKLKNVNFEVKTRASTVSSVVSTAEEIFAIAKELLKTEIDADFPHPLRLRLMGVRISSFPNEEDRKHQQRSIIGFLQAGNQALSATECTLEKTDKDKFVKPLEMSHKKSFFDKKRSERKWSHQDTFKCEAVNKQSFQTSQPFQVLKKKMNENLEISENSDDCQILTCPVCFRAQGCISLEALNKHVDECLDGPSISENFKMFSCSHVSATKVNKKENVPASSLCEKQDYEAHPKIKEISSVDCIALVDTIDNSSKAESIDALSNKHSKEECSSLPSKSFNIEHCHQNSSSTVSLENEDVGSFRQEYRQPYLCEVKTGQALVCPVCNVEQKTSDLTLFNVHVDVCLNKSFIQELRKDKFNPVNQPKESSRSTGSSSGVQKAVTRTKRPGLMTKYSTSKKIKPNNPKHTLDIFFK

[5] = target: T1, Ubiquitin carboxyl-terminal hydrolase 1/WD repeat-containing protein 48; test: Inhibition of human USP1/UAF1 complex using Ub-Rho as substrate by qHTS assay; assay type: protein-complex assay

Compound Nc1nc(COC(=O)c2ccc([N+](=O)[O-])cc2)nc(Nc2ccccc2)n1 has a GI50 [1] of 10000 nM.
Compound Cc1ccc(Nc2nc(N)nc(COC(=O)c3ccc([N+](=O)[O-])cc3)n2)cc1 has a GI50 [1] of 10000 nM.
For O=C1c2ccccc2C(=O)C2OC(c3ccc(F)cc3)=NC12 (centres undefined), the IC50 [2] was 880 nM.
With Cc1cnc(-c2ccccc2C(C)C)nc1NCc1ccc(-n2ccnn2)cc1 the inhibition [3] was 31% and the GI50 [4] was 59 nM.
Compound O=C(O)C1=CC(=C(c2ccc(O)c(C(=O)O)c2)c2ccc(O)c(C(=O)O)c2)C=CC1=O [AURINTRICARBOXYLIC ACID] has an IC50 (DNA polymerase iota) of 75 nM and an IC50 (DNA polymerase eta) of 75 nM.
In the case of CCOc1nc2cccc(C(=O)OC(C)OC(=O)OC3CCCCC3)c2n1Cc1ccc(-c2ccccc2-c2nnn[nH]2)cc1 (centres undefined) [CANDESARTAN CILEXETIL], the IC50 (DNA polymerase kappa) is reported as 5600 nM.
Compound O=c1oc2c(O)c(O)cc3c(=O)oc4c(O)c(O)cc1c4c23 [ELLAGIC ACID] has an IC50 (DNA polymerase iota) of 62 nM and an IC50 (DNA polymerase eta) of 62 nM.
Work on CC(C)(Sc1ccc(CCN(CCCCC2CCCCC2)C(=O)NC2CCCCC2)cc1)C(=O)O [GW7647] yielded an IC50 [5] of 5000 nM.
O=c1[nH]c2ccccc2n1C1CCN(CCCC(c2ccc(F)cc2)c2ccc(F)cc2)CC1 [PIMOZIDE] gave an IC50 [5] of 2000 nM.
For CC(=O)c1c(O)c(C)c(O)c(Cc2c(O)c3c(c(C(=O)/C=C/c4ccccc4)c2O)OC(C)(C)C=C3)c1O [ROTTLERIN], the IC50 [5] was 8000 nM.
CN1CCN(CCCN2c3ccccc3Sc3ccc(C(F)(F)F)cc32)CC1 [TRIFLUOPERAZINE] gave an IC50 [5] of 8000 nM.
